In PubChem BioAssay AID248 (DTP/NCI, 2004):
Several values for one entry are separate records, joined by “and”; a condition that tells them apart may be missing. Equal values may be shown once. Toxic doses and inconclusive results are not listed. Rule as the data show it: active = T/C of 150% or more; inactive = T/C below 125%.

System: L1210 leukemia ip in BDF1 mice, survival T/C
Assay: NCI In Vivo Anticancer Drug Screen. Data for tumor model L1210 Leukemia (intraperitoneal) in B6D2F1 (BDF1) mice
Details: endpoint: mean survival time, higher = longer survival
Summary of the method: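 In this screen, tumor-bearing mice given compound are compared to those given vehicle, and their survival values are reported as a treated-to-control quotient.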

[1] = dose: 100.0 mg/kg/injection, schedule: Q01DX001 (ip), vehicle: saline
[2] = dose: 100.0 mg/kg/injection, schedule: Q01DX009 (ip), vehicle: saline
[3] = dose: 100.0 mg/kg/injection, schedule: Q04DX003 (ip), vehicle: saline
[4] = dose: 200.0 mg/kg/injection, schedule: Q04DX003 (ip), vehicle: saline
[5] = dose: 400.0 mg/kg/injection, schedule: Q04DX003 (ip), vehicle: saline
[6] = dose: 100.0 mg/kg/injection, schedule: Q04DX002 (ip), vehicle: saline with Tween-80
[7] = dose: 200.0 mg/kg/injection, schedule: Q04DX002 (ip), vehicle: saline with Tween-80
[8] = dose: 400.0 mg/kg/injection, schedule: Q04DX002 (ip), vehicle: saline with Tween-80
[9] = dose: 100.0 mg/kg/injection, schedule: Q01DX009 (ip), vehicle: saline with Tween-80
[10] = dose: 200.0 mg/kg/injection, schedule: Q01DX009 (ip), vehicle: saline with Tween-80

Measured: T/C

ON=C1CSSC1
inactive: dose: 1.0 mg/kg/injection, schedule: Q01DX009 (ip), vehicle: saline with Tween-80 97 % of control | dose: 1.56 mg/kg/injection, schedule: Q04DX003 (ip), vehicle: saline with Tween-80 97 % of control | dose: 2.0 mg/kg/injection, schedule: Q01DX009 (ip), vehicle: saline with Tween-80 97 % of control | dose: 3.12 mg/kg/injection, schedule: Q04DX003 (ip), vehicle: saline with Tween-80 106 % of control | dose: 4.0 mg/kg/injection, schedule: Q01DX009 (ip), vehicle: saline with Tween-80 101 % of control | dose: 6.25 mg/kg/injection, schedule: Q04DX003 (ip), vehicle: saline with Tween-80 101 % of control | dose: 8.0 mg/kg/injection, schedule: Q01DX009 (ip), vehicle: saline with Tween-80 104 % of control | dose: 12.5 mg/kg/injection, schedule: Q04DX003 (ip), vehicle: saline with Tween-80 89 % of control and 90 % of control

C=CCc1cn(C2CC(O)C(CO)O2)c(=O)[nH]c1=O (configuration not stated)
inactive: dose: 50.0 mg/kg/injection, schedule: Q01DX001 (ip), vehicle: saline 101 % of control | dose: 50.0 mg/kg/injection, schedule: Q04DX002 (ip), vehicle: saline 91 % of control | [1] 100 % of control and 101 % of control and 106 % of control | [2] 98 % of control | dose: 100.0 mg/kg/injection, schedule: Q04DX002 (ip), vehicle: saline 110 % of control | [3] 106 % of control | dose: 115.0 mg/kg/injection, schedule: Q01DX009 (ip), vehicle: saline 104 % of control | dose: 175.0 mg/kg/injection, schedule: Q01DX009 (ip), vehicle: saline 102 % of control | dose: 178.0 mg/kg/injection, schedule: Q01DX015 (ip), vehicle: saline 110 % of control | dose: 200.0 mg/kg/injection, schedule: Q01DX009 (ip), vehicle: saline 109 % of control and 112 % of control | dose: 200.0 mg/kg/injection, schedule: Q04DX002 (ip), vehicle: saline 100 % of control | [4] 95 % of control | dose: 264.0 mg/kg/injection, schedule: Q01DX009 (ip), vehicle: saline 110 % of control | dose: 267.0 mg/kg/injection, schedule: Q01DX015 (ip), vehicle: saline 107 % of control | dose: 400.0 mg/kg/injection, schedule: Q01DX009 (ip), vehicle: saline 115 % of control | dose: 400.0 mg/kg/injection, schedule: Q01DX015 (ip), vehicle: saline 119 % of control | [5] 111 % of control | dose: 600.0 mg/kg/injection, schedule: Q01DX015 (ip), vehicle: saline 121 % of control | dose: 800.0 mg/kg/injection, schedule: Q01DX001 (ip), vehicle: saline 105 % of control | dose: 1600.0 mg/kg/injection, schedule: Q01DX001 (ip), vehicle: saline 110 % of control

NC(=S)NS(=O)(=O)c1ccc(N)cc1
inactive: dose: 89.0 mg/kg/injection, schedule: Q01DX001 (ip), vehicle: saline 97 % of control and 98 % of control | [1] 104 % of control | dose: 133.0 mg/kg/injection, schedule: Q01DX001 (ip), vehicle: saline 98 % of control and 104 % of control | dose: 200.0 mg/kg/injection, schedule: Q01DX001 (ip), vehicle: saline 96 % of control and 92 % of control | dose: 300.0 mg/kg/injection, schedule: Q01DX001 (ip), vehicle: saline 93 % of control and 102 % of control | dose: 400.0 mg/kg/injection, schedule: Q01DX001 (ip), vehicle: saline 98 % of control

C=CCNC(=O)NCCSC(=O)SCCCC
inactive: dose: 100.0 mg/kg/injection, schedule: Q01DX001 (ip), vehicle: Klucel (hydroxypropylcellulose) (HPC) 103 % of control | dose: 200.0 mg/kg/injection, schedule: Q01DX001 (ip), vehicle: Klucel (hydroxypropylcellulose) (HPC) 100 % of control | dose: 400.0 mg/kg/injection, schedule: Q01DX001 (ip), vehicle: Klucel (hydroxypropylcellulose) (HPC) 100 % of control

Cc1c(C2=NCC(C)S2)ccc(O)c1N (configuration not stated)
inactive: dose: 62.5 mg/kg/injection, schedule: Q04DX002 (ip), vehicle: saline with Tween-80 93 % of control | dose: 125.0 mg/kg/injection, schedule: Q04DX002 (ip), vehicle: saline with Tween-80 90 % of control | dose: 250.0 mg/kg/injection, schedule: Q04DX002 (ip), vehicle: saline with Tween-80 93 % of control

c1ccc(C2=C(c3ccccc3)SC(c3ccccc3)=C(c3ccccc3)S2)cc1
inactive: [3] 102 % of control | [4] 98 % of control | [5] 104 % of control

COc1cc(CCCc2cccc(O)c(=O)c2)cc(OC)c1OC
inactive: [6] 91 % of control and 103 % of control | [7] 105 % of control and 89 % of control | [8] 108 % of control and 116 % of control

Cc1ccc(Cl)cc1NC(=O)OCCOc1ccccc1
inactive: dose: 50.0 mg/kg/injection, schedule: Q04DX003 (ip), vehicle: saline with Tween-80 104 % of control | dose: 100.0 mg/kg/injection, schedule: Q01DX001 (ip), vehicle: saline with Tween-80 93 % of control | [9] 95 % of control | [6] 112 % of control and 89 % of control | dose: 100.0 mg/kg/injection, schedule: Q04DX003 (ip), vehicle: saline with Tween-80 96 % of control and 91 % of control | dose: 200.0 mg/kg/injection, schedule: Q01DX001 (ip), vehicle: saline with Tween-80 91 % of control | [10] 103 % of control and 90 % of control | [7] 94 % of control | dose: 200.0 mg/kg/injection, schedule: Q04DX003 (ip), vehicle: saline with Tween-80 102 % of control | dose: 400.0 mg/kg/injection, schedule: Q01DX001 (ip), vehicle: saline with Tween-80 98 % of control | dose: 400.0 mg/kg/injection, schedule: Q01DX009 (ip), vehicle: saline with Tween-80 95 % of control and 103 % of control | [8] 94 % of control and 95 % of control | dose: 400.0 mg/kg/injection, schedule: Q04DX003 (ip), vehicle: saline with Tween-80 88 % of control and 92 % of control

O=C(CCCCl)Oc1ccccc1
inactive: [9] 103 % of control | [10] 98 % of control

CC1(O)Cn2c(nc3nccnc32)S1 (configuration not stated)
inactive: dose: 25.0 mg/kg/injection, schedule: Q01DX009 (ip), vehicle: saline 100 % of control | dose: 50.0 mg/kg/injection, schedule: Q01DX009 (ip), vehicle: saline 96 % of control | [2] 94 % of control | [3] 100 % of control | [4] 96 % of control

N#CCCN(C(=O)Nc1cccc(C(F)(F)F)c1)C1CCCCC1
inactive: dose: 100.0 mg/kg/injection, schedule: Q01DX001 (ip), vehicle: carboxymethylcellulose (CMC) 100 % of control and 103 % of control | dose: 100.0 mg/kg/injection, schedule: Q01DX009 (ip), vehicle: carboxymethylcellulose (CMC) 90 % of control | dose: 100.0 mg/kg/injection, schedule: Q04DX002 (ip), vehicle: carboxymethylcellulose (CMC) 93 % of control and 89 % of control | dose: 100.0 mg/kg/injection, schedule: Q04DX003 (ip), vehicle: carboxymethylcellulose (CMC) 100 % of control and 103 % of control | dose: 200.0 mg/kg/injection, schedule: Q01DX001 (ip), vehicle: carboxymethylcellulose (CMC) 96 % of control and 100 % of control | dose: 200.0 mg/kg/injection, schedule: Q01DX009 (ip), vehicle: carboxymethylcellulose (CMC) 90 % of control | dose: 200.0 mg/kg/injection, schedule: Q04DX002 (ip), vehicle: carboxymethylcellulose (CMC) 93 % of control | dose: 200.0 mg/kg/injection, schedule: Q04DX003 (ip), vehicle: carboxymethylcellulose (CMC) 93 % of control | dose: 400.0 mg/kg/injection, schedule: Q01DX001 (ip), vehicle: carboxymethylcellulose (CMC) 92 % of control and 102 % of control | dose: 400.0 mg/kg/injection, schedule: Q04DX002 (ip), vehicle: carboxymethylcellulose (CMC) 86 % of control | dose: 400.0 mg/kg/injection, schedule: Q04DX003 (ip), vehicle: carboxymethylcellulose (CMC) 95 % of control
